For orientation: half-life means how long it takes for the measured level to halve. High values mean slow decline, low ones rapid decline. By microsomal CLint is commonly meant the rate of metabolic loss divided by the concentration. Lower therefore signals slow turnover. By AUC(0-t) is commonly meant the area under the concentration-time curve up to a stated or last time point. Low values mean less exposure, high ones more exposure. In general, Cmax refers to the highest concentration seen after dosing. A word on the MRT: it is the average time that molecules of a dose stay in the body. As usually defined, the Tmax is the time at which the peak concentration occurs.

Results on 8 compounds are retold here after US11718611B2, “Benzenesulfonylbenazamide compound for inhibiting BCL-2 protein and composition and use thereof” (Shenzhen TargetRx, Inc., priority 2017, dated 2023).

Data set [1] can be described thus: Liver microsomal metabolism experiment (metabolic stability). The conditions noted are these: pH 7.4; mouse liver microsomes 0.5 mg/mL, compound 1 μM. It is filed as in vitro ADME. As to the method:
Microsome assay: mouse liver microsomes: 0.5 mg/mL, Xenotech; coenzyme (NADPH/NADH): 1 mM, Sigma Life Science; magnesium chloride: 5 mM, 100 mM phosphate buffer (pH 7.4).
Preparation of stock solutions: Powder of the compounds were accurately weighed and dissolved in DMSO to 5 mM.
Preparation of phosphate buffer (100 mM, pH7.4): A pre-prepared 0.5M potassium dihydrogen phosphate (150 mL) was mixed with 0.5M dibasic potassium phosphate (700 mL). The pH of the mixture was adjusted to 7.4 with 0.5M dibasic potassium phosphate solution. The mixture was diluted 5-fold with ultrapure water before use, and magnesium chloride was added to obtain a phosphate buffer (100 mM) containing 100 mM potassium phosphate, 3.3 mM magnesium chloride, pH 7.4.
A NADPH regeneration system solution (containing 6.5 mM NADP, 16.5 mM G-6-P, 3 U/mL G-6-P D, 3.3 mM magnesium chloride) was prepared and placed on wet ice prior to use.
Preparation of stop solution: an acetonitrile solution containing 50 ng/mL propranolol hydrochloride and 200 ng/mL tolbutamide (internal standard). 25057.5 μL of phosphate buffer (pH 7.4) was taken into a 50 mL centrifuge tube, to which 812.5 μL mouse liver microsomes were added, and mixed to obtain a liver microsome dilution with a protein concentration of 0.625 mg/mL.
Incubation of the samples: The stock solutions of the respective compounds were respectively diluted to 0.25 mM with an aqueous solution containing 70% acetonitrile, and used as a working solution, ready for use. 398 μL of the dilution of human liver microsomes or rat mouse liver microsomes were added to 96-well incubation plates (N=2), respectively, and 2 μL of 0.25 mM working solution was added and mixed.
Metabolic stability assay: 300 μL of pre-chilled stop solution was added to each well of 96-well deep well plates and placed on ice as stop plates. The 96-well incubation plates and NADPH regeneration system were placed in a 37° C. water bath box, shaken at 100 rpm and pre-incubated for 5 min. 80 μL of incubation solution was taken out from each well of the incubation plates and added to the stop plates, mixed, and replenished with 20 μL of NADPH regeneration system solution as a 0-min sample. 80 μL of NADPH regeneration system solution was added to each well of the incubation plates to start the reaction and start counting. […] Separately, 100 μL of the reaction solutions was taken at 10, 30, and 90 min reaction, respectively, added to stop plates, and vortexed for 3 minutes to terminate the reaction. The stop plates were centrifuged at 5000×g at 4° C. for 10 min. 100 μL of the supernatant was added to a 96-well plate to which 100 μL of distilled water was previously added, mixed, and analyzed by LC-MS/MS.
Data analysis: The peak areas of the corresponding compounds and internal standard were detected by LC-MS/MS system, and the ratio of the peak area of the compounds to the internal standard was calculated.
In general terms: Liver microsomes are vesicles of endoplasmic reticulum, rich in cytochrome P450 enzymes.

The nature of data set [2]: Pharmacokinetic experiment in rats. In kind it is in vivo, SD rat. The conditions noted are these: male SD rats, i.g., 3 mg/kg; for AUC(0-t) / Cmax / MRT / Tmax: rat, plasma, po. The protocol:
Experimental Objective: To investigate the pharmacokinetic behavior of the compounds of the present disclosure after the rats being administered with the test compounds.
Species and strain: SD rat grade: SPF grade
Gender and quantity: male, 6
Experimental procedures: Before blood samples were collected, 20 μL of 2 M sodium fluoride solution (esterase inhibitor) was previously added to an EDTA-K2 anticoagulant tube, dried in an 80° C. oven, and placed in a 4° C. refrigerator.
Rats (male, weighing 187 to 197 g) were randomly divided into 2 groups, and were fasted overnight in the afternoon before the experiment but were allowed to drink water freely. Food was given 4 hours after the administration. Group A was given Venetoclaxr (3 mg/kg), and group B was given example compounds 1 to 7 (3 mg/kg). About 100-200 μL of blood was taken from the orbital vein of rats at 15 min, 30 min, 1, 2, 3, 5, 8 and 10 h after administration, placed in a 0.5 mL Eppendorf tube with EDTA-K2 anticoagulant and mixed immediately. After anticoagulation, the tube was gently inverted 5-6 times as quickly as possible. After the blood was taken, it was placed in an ice box, and then within 30 min, the blood sample was centrifuged for 10 min at 4000 rpm and 4° C. to separate the plasma. Immediately after collection of all plasma, it was stored at −20° C. The concentration of the drug in plasma at each time point was determined after sample collection at all time points.

In data set [1], `[2H]C([2H])(C1=C(c2ccc(Cl)cc2)CC(C)(C)CC1)N1CCN(c2ccc(C(=O)NS(=O)(=O)c3ccc(NCC4CCOCC4)c([N+](=O)[O-])c3)c(Oc3cnc4[nH]ccc4c3)c2)CC1` (single isomer, unassigned) [Compound T-1, 4-(4-{[2-(4-chlorophenyl)-4,4-dimethylcyclohex-1-en-1-yl]methyl-d2}piperazin-1-yl)-N-({3-nitro-4-[(tetrahydro-2H-pyran-4-ylmethyl)amino]phenyl}sulfonyl)-2-(1H-pyrrolo[2,3-b]pyridin-5-yloxy)benzamide] had a half-life at 1 μM of 4.07 h and a microsomal CLint at 1 μM of 5.7 µL/min/mg.
On to `[2H]C([2H])(Nc1ccc(S(=O)(=O)NC(=O)c2ccc(N3CCN(C([2H])([2H])C4=C(c5ccc(Cl)cc5)CC(C)(C)CC4)CC3)cc2Oc2cnc3[nH]ccc3c2)cc1[N+](=O)[O-])C1CCOCC1` (single isomer, unassigned) [Compound T-2, 4-(4-{[2-(4-chlorophenyl)-4,4-dimethylcyclohex-1-en-1-yl]methyl-d2}piperazin-1-yl)-N-({3-nitro-4-[(tetrahydro-2H-pyran-4-ylmethyl-d2)amino]phenyl}sulfonyl)-2-(1H-pyrrolo[2,3-b]pyridin-5-yloxy)benzamide], for which, in data set [1], the half-life at 1 μM was 2.38 h and the intrinsic metabolic clearance (microsomal CLint) at 1 μM worked out at 9.7 µL/min/mg.
For `[2H]C([2H])(Nc1ccc(S(=O)(=O)NC(=O)c2ccc(N3CCN(CC4=C(c5ccc(Cl)cc5)CC(C)(C)CC4)CC3)cc2Oc2cnc3[nH]ccc3c2)cc1[N+](=O)[O-])C1CCOCC1` (single isomer, unassigned) [Compound T-3, 4-(4-{[2-(4-chlorophenyl)-4,4-dimethylcyclohex-1-en-1-yl]methyl}piperazin-1-yl)-N-({3-nitro-4-[(tetrahydro-2H-pyran-4-ylmethyl-d2)amino]phenyl}sulfonyl)-2-(1H-pyrrolo[2,3-b]pyridin-5-yloxy)benzamide], in data set [1], the half-life at 1 μM was found to be 1.25 h and the microsomal CLint at 1 μM came to 18.4 µL/min/mg. In data set [2], the “Cl—pred” value was determined as 40.2 mL/min/kg, the F is 7.10%, the area under the curve AUC(0-t) stood at 4430 ng·h/mL and the Cmax is 680 ng/mL. For the same compound, in data set [2], the mean residence time (MRT) was 5.07 h and the time of peak concentration (Tmax) was found to be 3.33 h.
In data set [1], `[2H]C([2H])(C1=C(c2ccc(Cl)cc2)CC(C)(C)CC1)N1C([2H])([2H])C([2H])([2H])N(c2ccc(C(=O)NS(=O)(=O)c3ccc(NCC4CCOCC4)c([N+](=O)[O-])c3)c(Oc3cnc4[nH]ccc4c3)c2)C([2H])([2H])C1([2H])[2H]` (single isomer, unassigned) [Compound T-4, 4-(4-{[2-(4-chlorophenyl)-4,4-dimethylcyclohex-1-en-1-yl]-methyl-d2}piperazin-1-yl-2,2,3,3,5,5,6,6-d8)-N-({3-nitro-4-[(tetrahydro-2H-pyran-4-ylmethyl)amino]phenyl}sulfonyl)-2-(1H-pyrrolo[2,3-b]pyridin-5-yloxy)benzamide] yielded a half-life at 1 μM of 1.12 h and an intrinsic metabolic clearance (microsomal CLint) at 1 μM of 20.7 µL/min/mg.
For `[2H]C1([2H])N(CC2=C(c3ccc(Cl)cc3)CC(C)(C)CC2)C([2H])([2H])C([2H])([2H])N(c2ccc(C(=O)NS(=O)(=O)c3ccc(NCC4CCOCC4)c([N+](=O)[O-])c3)c(Oc3cnc4[nH]ccc4c3)c2)C1([2H])[2H]` (single isomer, unassigned) [Compound T-5, 4-(4-{[2-(4-chlorophenyl)-4,4-dimethylcyclohex-1-en-1-yl]methyl}piperazin-1-yl-2,2,3,3,5,5,6,6-d8)-N-({3-nitro-4-[(tetrahydro-2H-pyran-4-ylmethyl)amino]phenyl}sulfonyl)-2-(1H-pyrrolo[2,3-b]pyridin-5-yloxy)benzamide], in that order: 1.52 h and 15.2 µL/min/mg.
As to `[2H]C([2H])(Nc1ccc(S(=O)(=O)NC(=O)c2ccc(N3C([2H])([2H])C([2H])([2H])N(CC4=C(c5ccc(Cl)cc5)CC(C)(C)CC4)C([2H])([2H])C3([2H])[2H])cc2Oc2cnc3[nH]ccc3c2)cc1[N+](=O)[O-])C1CCOCC1` (single isomer, unassigned) [Compound T-6, 4-(4-{[2-(4-chlorophenyl)-4,4-dimethylcyclohex-1-en-1-yl]methyl}piperazin-1-yl-2,2,3,3,5,5,6,6-d8)-N-({3-nitro-4-[(tetrahydro-2H-pyran-4-ylmethyl-d2)amino]phenyl}sulfonyl)-2-(1H-pyrrolo[2,3-b]pyridin-5-yloxy)benzamide], in data set [1], the half-life at 1 μM is 1.3 h and the microsomal CLint at 1 μM came out at 17.8 µL/min/mg.
In data set [1], `[2H]C([2H])(Nc1ccc(S(=O)(=O)NC(=O)c2ccc(N3C([2H])([2H])C([2H])([2H])N(C([2H])([2H])C4=C(c5ccc(Cl)cc5)CC(C)(C)CC4)C([2H])([2H])C3([2H])[2H])cc2Oc2cnc3[nH]ccc3c2)cc1[N+](=O)[O-])C1CCOCC1` (single isomer, unassigned) [Compound T-7, 4-(4-{[2-(4-chlorophenyl)-4,4-dimethylcyclohex-1-en-1-yl]methyl-d2}piperazin-1-yl-2,2,3,3,5,5,6,6-d8)-N-({3-nitro-4-[(tetrahydro-2H-pyran-4-ylmethyl-d2)amino]phenyl}sulfonyl)-2-(1H-pyrrolo[2,3-b]pyridin-5-yloxy)benzamide] had a half-life at 1 μM of 5.11 h and an intrinsic clearance (microsomal CLint) at 1 μM of 4.5 µL/min/mg.
In data set [1], `CC1(C)CCC(CN2CCN(c3ccc(C(=O)NS(=O)(=O)c4ccc(NCC5CCOCC5)c([N+](=O)[O-])c4)c(Oc4cnc5[nH]ccc5c4)c3)CC2)=C(c2ccc(Cl)cc2)C1` [Venetoclax, 4-(4-{[2-(4-chlorophenyl)-4,4-dimethylcyclohex-1-en-1-yl]methyl}piperazin-1-yl)-N-({3-nitro-4-[(tetrahydro-2H-pyran-4-ylmethyl)amino]phenyl}sulfonyl)-2-(1H-pyrrolo[2,3-b]pyridin-5-yloxy)benzamide, reference compound] yielded a half-life at 1 μM of 1.35 h and a microsomal CLint at 1 μM of 17.1 µL/min/mg. In data set [2], the “Cl—pred” value turned out to be 54.7 mL/min/kg, the F came out at 3.47%, the AUC(0-t) stood at 3060 ng·h/mL and the highest level (Cmax) was 478 ng/mL. In addition, in data set [2], the MRT amounted to 5.22 h and the Tmax came to 3.33 h.
